From patent US9273057B2 (Bristol-Myers Squibb Company, priority 2012, dated 2016)

Target: CK2A1 (CK2α/β) (Homo sapiens, UniProt P68400)
Assay: CK2 kinase assay, CK2A1 (CK2α/β)
Format: biochemical
Details: Table A; read-out: CK2A1 (CK2α/β) (IC50)

Chain of CK2A1 (CK2α/β) (P68400 whole entry, species assumed): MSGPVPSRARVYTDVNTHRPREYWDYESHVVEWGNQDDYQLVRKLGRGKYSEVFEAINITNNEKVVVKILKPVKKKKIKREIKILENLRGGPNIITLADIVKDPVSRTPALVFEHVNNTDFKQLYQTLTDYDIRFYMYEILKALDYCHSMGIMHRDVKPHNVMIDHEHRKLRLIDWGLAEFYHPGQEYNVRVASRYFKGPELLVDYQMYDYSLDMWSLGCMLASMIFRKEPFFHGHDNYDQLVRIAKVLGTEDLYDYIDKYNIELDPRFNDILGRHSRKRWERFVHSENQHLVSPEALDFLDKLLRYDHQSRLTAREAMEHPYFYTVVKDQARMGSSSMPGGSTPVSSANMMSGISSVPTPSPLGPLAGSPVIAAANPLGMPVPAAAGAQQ
Chain of CK2A1 (CK2α/β) (P67870 whole entry partner, species assumed): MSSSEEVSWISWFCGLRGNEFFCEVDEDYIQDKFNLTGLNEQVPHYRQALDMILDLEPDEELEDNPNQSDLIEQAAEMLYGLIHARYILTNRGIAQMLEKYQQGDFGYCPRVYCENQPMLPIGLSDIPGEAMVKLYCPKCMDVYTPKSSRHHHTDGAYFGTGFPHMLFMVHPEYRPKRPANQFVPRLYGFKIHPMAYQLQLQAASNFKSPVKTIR

| SMILES | IC50 |
| --- | --- |
| CCNc1nc(Nc2cc(C#N)cc(N3CC[C@@H](NC(=O)OC)[C@@H](N(C)C(C)C(N)=O)C3)c2Cl)nn2c(C#N)cnc12 (stereo in doubt) [Example 769, methyl N-[(3S,4R)-3-{[(1S)-1-carbamoylethyl](methyl)amino}-1-(2-chloro-5-cyano-3-{[7-cyano-4-(ethylamino)imidazo[2,1-f][1,2,4]triazin-2-yl]amino}phenyl)piperidin-4-yl]carbamate] | 3 nM |
| CN1CCN(C(=O)C2CCN(c3cc(C(F)F)cc(Nc4nc(NC5CC5)c5ncc(C#N)n5n4)c3Cl)CC2)CC1 [Example 546, 2-((2-chloro-5-(difluoromethyl)-3-(4-(4-methylpiperazine-1-carbonyl)piperidin-1-yl)phenyl)amino)-4-(cyclopropylamino)imidazo[2,1-f][1,2,4]triazine-7-carbonitrile] | 2.7 nM |
| N#Cc1cc(Nc2nc(NC3CC3)c3ncc(C#N)n3n2)c(Cl)c(N2CCN(C3CN(C(=O)C4(O)CC4)C3)CC2)c1 [Example 481, 2-[(2-chloro-5-cyano-3-{4-[1-(1-hydroxycyclopropane-carbonyl)azetidin-3-yl]piperazin-1-yl}phenyl)amino]-4-(cyclopropylamino)imidazo[2,1-f][1,2,4]triazine-7-carbonitrile] | 0.93 nM |
| N#Cc1cc(Nc2nc(NC3CC3)c3ncc(C#N)n3n2)c(Cl)c(C2(F)CNC2)c1 [Example 659, 2-((2-chloro-5-cyano-3-(3-fluoroazetidin-3-yl)phenyl)amino)-4-(cyclopropylamino)imidazo[2,1-f][1,2,4]triazine-7-carbonitrile] | 0.4 nM |
| CC1(N2CCOCC2)CCN(c2cc(C(F)F)cc(Nc3nc(NC4CC4)c4ncc(C#N)n4n3)c2Cl)CC1 [Example 244, 2-((2-chloro-5-(difluoromethyl)-3-(4-methyl-4-(4-morpholinyl)-1-piperidinyl)phenyl)amino)-4-(cyclopropylamino)imidazo[2,1-f][1,2,4]triazine-7-carbonitrile] | 0.97 nM |
| CC(C(N)=O)N1CCC(c2cc(C#N)cc(Nc3nc(NC4CC4)c4ncc(C#N)n4n3)c2Cl)CC1 (racemic) [Example 639, (+/−)-2-(4-(2-chloro-5-cyano-3-((7-cyano-4-(cyclopropylamino)imidazo[2,1-f][1,2,4]triazin-2-yl)amino)phenyl)piperidin-yl)propanamide] | 1.28 nM |
| COC(=O)N[C@H]1CCN(c2cc(C#N)cc(Nc3nc(NC4CC4)c4ncc(C#N)n4n3)c2Cl)C[C@@H]1OC(=O)CN [Example 193, (3S,4S)-1-(2-chloro-5-cyano-3-((7-cyano-4-(cyclopropylamino)imidazo[2,1-f][1,2,4]triazin-2-yl)amino)phenyl)-4-((methoxycarbonyl)amino)-3-piperidinyl glycinate] | 6 nM |
| N#Cc1cc(Nc2nc(NC3CC3)c3ncc(C#N)n3n2)c(Cl)c(N2CCN3CCOC[C@H]3C2)c1 [Example 308, (R)-2-((2-chloro-5-cyano-3-(hexahydropyrazino[2,1-c][1,4]oxazin-8(1H)-yl)phenyl)amino)-4-(cyclopropylamino)imidazo[2,1-f][1,2,4]triazine-7-carbonitrile] | 1.67 nM |
| CCNc1nc(Nc2cc(C(N)=O)cc(N3CC[C@H](NC(=O)OC)[C@@H](O)C3)c2Cl)nn2c(C#N)cnc12 (racemic) [Example 389, (+/−)-methyl ((3R,4R)-1-(5-carbamoyl-2-chloro-3-((7-cyano-4-(ethylamino)imidazo[2,1-f][1,2,4]triazin-2-yl)amino)phenyl)-3-hydroxypiperidin-4-yl)carbamate] | 3.39 nM |
| CCNc1nc(Nc2cc(C#N)cc(N3CC[C@@H](NC(=O)OC)[C@@H](N(C)C4COC4)C3)c2Cl)nn2c(C#N)cnc12 [Example 751, methyl ((3S,4R)-1-(2-chloro-5-cyano-3-((7-cyano-4-(ethylamino)imidazo[2,1-f][1,2,4]triazin-2-yl)amino)phenyl)-3-(methyl(oxetan-3-yl)amino)piperidin-4-yl)carbamate] | 1.3 nM |
| N#Cc1cc(Nc2nc(NC3CC3)c3ncc(C#N)n3n2)c(Cl)c(N2CCOC(CN3CC(F)C3)C2)c1 (stereo not drawn) [Example 705, 2-[(2-chloro-5-cyano-3-{2-[(3-fluoroazetidin-1-yl)methyl]morpholin-4-yl}phenyl)amino]-4-(cyclopropylamino)imidazo[2,1-f][1,2,4]triazine-7-carbonitrile] | 0.89 nM |
| N#Cc1cc(Nc2nc(NC3CC3)c3ncc(C#N)n3n2)c(Cl)cc1CCCO [Example 566, 2-((2-chloro-5-cyano-4-(3-hydroxypropyl)phenyl)amino)-4-(cyclopropylamino)imidazo[2,1-f][1,2,4]triazine-7-carbonitrile] | 0.1 nM |
| N#Cc1cc(Nc2nc(NC3CC3)c3ncc(C#N)n3n2)c(Cl)c(N2CCN(C(=O)CC3CC3)CC2)c1 [Example 86] | 0.72 nM |
| CC(=O)N1CCN(C2CN(c3cc(C#N)cc(Nc4nc(NC5CC5)c5ncc(C#N)n5n4)c3Cl)C2)CC1 [Example 541, 2-((3-(3-(4-acetylpiperazin-1-yl)azetidin-1-yl)-2-chloro-5-cyanophenyl)amino)-4-(cyclopropylamino)imidazo[2,1-f][1,2,4]triazine-7-carbonitrile] | 0.57 nM |
| N#Cc1cc(Nc2nc(NC3CC3)c3ncc(C#N)n3n2)c(Cl)c(N2CCN(C3CN(C(=O)C4CCC(O)CC4)C3)CC2)c1 (stereo not drawn) [Example 512, 2-[(2-chloro-5-cyano-3-{4-[1-(4-hydroxycyclohexane-carbonyl)azetidin-3-yl]piperazin-1-yl}phenyl)amino]-4-(cyclopropylamino)imidazo[2,1-f][1,2,4]triazine-7-carbonitrile] | 5.8 nM |
| CCNc1nc(Nc2ccc3c(c2)c(C#N)cn3C2CCN(C[C@@H](O)CN3CCOCC3)CC2)nn2c(C#N)cnc12 [Example 830, (R)-2-((3-cyano-1-(1-(2-hydroxy-3-morpholinopropyl)piperidin-4-yl)-1H-indol-5-yl)amino)-4-(ethylamino)imidazo[2,1-f][1,2,4]triazine-7-carbonitrile] | 0.35 nM |
| N#Cc1cc(Nc2nc(NC3CC3)c3ncc(C#N)n3n2)c(Cl)c(C2(F)COC2)c1 [Example 660, 2-((2-chloro-5-cyano-3-(3-fluorooxetan-3-yl)phenyl)amino)-4-(cyclopropylamino)imidazo[2,1-f][1,2,4]triazine-7-carbonitrile] | 0.35 nM |
| CO[C@@H]1CN(c2cc(C#N)cc(Nc3nc(NC4CC4)c4ncc(C#N)n4n3)c2Cl)C[C@@H]1NC(=O)NC1COC1 [Example 290, 1-((3S,4R)-1-(2-chloro-5-cyano-3-((7-cyano-4-(cyclopropylamino)imidazo[2,1-f][1,2,4]triazin-2-yl)amino)phenyl)-4-methoxy-3-pyrrolidinyl)-3-(3-oxetanyl)urea] | 0.47 nM |
| CC1(O)CCN(CC(O)c2cc(C#N)cc(Nc3nc(NC4CC4)c4ncc(C#N)n4n3)c2Cl)CC1 (stereo not drawn) [Example 690, 2-((2-chloro-5-cyano-3-(1-hydroxy-2-(4-hydroxy-4-methylpiperidin-1-yl)ethyl)phenyl)amino)-4-(cyclopropylamino)imidazo[2,1-f][1,2,4]triazine-7-carbonitrile] | 3.4 nM |
| N#Cc1cc(Nc2nc(NC3CC3)c3ncc(C#N)n3n2)c(Cl)c(N2CCN(C3CN(C(=O)[C@@H]4C[C@H](F)CN4)C3)CC2)c1 [Example 503, 2-{[2-chloro-5-cyano-3-(4-{1-[(2S,4S)-4-fluoropyrrolidine-2-carbonyl]azetidin-3-yl}piperazin-1-yl)phenyl]amino}-4-(cyclopropylamino)imidazo[2,1-f][1,2,4]triazine-7-carbonitrile] | 3.67 nM |
| CCNc1nc(Nc2cc(C#N)cc(C3CCN(C(C)=O)CC3)c2Cl)nn2c(C#N)cnc12 [Example 354, 2-((3-(1-acetyl-4-piperidinyl)-2-chloro-5-cyanophenyl)amino)-4-(ethylamino)imidazo[2,1-f] [1,2,4]triazine-7-carbonitrile] | 0.52 nM |
| CCNc1nc(Nc2cc(C#N)cc(N3CCN(C4CN(C)C4)CC3)c2Cl)nn2c(C#N)cnc12 [Example 583, 2-({2-chloro-5-cyano-3-[4-(1-methylazetidin-3-yl)piperazin-1-yl]phenyl}amino)-4-(ethylamino)imidazo [2,1-f][1,2,4]triazine-7-carbonitrile] | 2.9 nM |
| CC1(C(=O)N2CCC(c3cc(C#N)cc(Nc4nc(NC5CC5)c5ncc(C#N)n5n4)c3Cl)CC2)COC1 [Example 233, 2-((2-chloro-5-cyano-3-(1-((3-methyl-3-oxetanyl)carbonyl)-4-piperidinyl)phenyl)amino)-4-(cyclopropylamino)imidazo[2,1-f][1,2,4]triazine-7-carbonitrile] | 0.58 nM |
| CN1CCOC(c2cc(C#N)cc(Nc3nc(NC4CC4)c4ncc(C#N)n4n3)c2Cl)C1 (racemic) [Example 694, (+/−)-2-((2-chloro-5-cyano-3-(4-methylmorpholin-2-yl)phenyl)amino)-4-(cyclopropylamino)imidazo[2,1-f][1,2,4]triazine-7-carbonitrile] | 1.48 nM |
| COC(=O)Nc1cc(Nc2nc(NC3CC3)c3ncc(C#N)n3n2)c(Cl)c(N2CC(N3CCC(OC)CC3)C2)c1 [Example 204, methyl (4-chloro-3-((7-cyano-4-(cyclopropylamino)imidazo[2,1-f][1,2,4]triazin-2-yl)amino)-5-(3-(4-methoxy-1-piperidinyl)-1-azetidinyl)phenyl)carbamate] | 0.87 nM |
| N#Cc1cnc2c(NC3CC3)nc(Nc3cc(OC(F)F)cc(N4CCN(C5CNC5)CC4)c3Cl)nn12 [Example 560, 2-((3-(4-(azetidin-3-yl)piperazin-1-yl)-2-chloro-5-(difluoromethoxy)phenyl)amino)-4-(cyclopropylamino)imidazo[2,1-f][1,2,4]triazine-7-carbonitrile] | 1.15 nM |
| CCNc1nc(Nc2cc(C#N)cc(N3CC[C@H]4[C@H](C3)OC(=O)N4C3COC3)c2Cl)nn2c(C#N)cnc12 [Example 840, 2-((2-chloro-5-cyano-3-((3aS,7aS)-1-(oxetan-3-yl)-2-oxohexahydrooxazolo[5,4-c]pyridin-5(2H)-yl)phenyl)amino)-4-(ethylamino)imidazo[2,1-f][1,2,4]triazine-7-carbonitrile] | 1.74 nM |
